Patent US8119839B2, “Carboxylic acid and antidepressant composition containing the same as active ingredient” (Yamada Apiculture Center, Inc., priority 2007, dated 2012)

Columns and labels:
Type in all cases: in vivo, mouse
[1] = tested on: ovariectomy model mice; assay: Forced swimming test, modified (Test Example 2); settings: oral for 14 days; for Immobility Time (second) Mean: 2 hours after last dose, 2nd minute to 4th minute, mean of 6 animals; for antidepressant effect: conclusion from Table 1 and FIG. 11
Experimental: Test Example 1 was partly modified as below, and a forced swimming test was performed to evaluate an antidepressant effect using the compounds (DDA-7 and DDA-14 to DDA-16) prepared in Preparation Examples 3 to 6 as test compounds. Regarding DDA-14 and DDA-15, a naturally occurring racemic form thereof has been reported, and thus, similarly to the mixture ratio by weight thereof, DDA-14 and DDA-15 were mixed at the ratio of 3:1 and prepared (2E,9S+9R)-9-hydroxy-2-decenoic acid (racemic form).
The experimental animals (ovariectomy model mice), to which each test compound was administered for 14 days (the first day of the administration was the following day after the day the ovaries were removed), were forced to swim. A 0.32 mg amount of compound DDA-7, 0.29 mg and 0.088 mg of DDA-14 and DDA-15, respectively, and 0.29 mg of DDA-16 were each individually dissolved in 80 ml of ion exchange water for administration. On the 14th day from the day each test compound administration was commenced, and 2 hours after the test compound was orally administered, each of the experimental animals was placed into a water tank, and the swimming time was measured for 10 minutes (test group). As a control experiment, the same procedure was performed as above, except that distilled water for injection was orally administered in place of the test compounds to each of the experimental animals (ovariectomy model mouse) in an amount of 0.1 ml per 10 g of body weight (control group).
The ten-minute swimming time was divided into one-minute periods to conduct analysis.

[2] = tested on: ovariectomy model mice; assay: Forced swimming test (Test Example 1)
Experimental: A forced swimming test has been widely used in the preclinical assessment of the antidepressant effect, and clinically effective antidepressants are known to shorten the immobility time (Porsort et al., Nature, 266, 730-732, 1977).
Therefore, the D4-II-3E-4 fraction ((2E)-9,10-dihydroxy-2-decenoic acid) prepared in Preparation Example 1 was administered to the animal model to undergo a forced swimming test (Nature, 266:730-732, 1977), and the antidepressant effect of the compound was evaluated.
ICR female mice (9 weeks old; weight: 29 to 33 g) were used as experimental animals. All of the mice were group-housed (10 mice per cage), and the feed and white flake bedding were exchanged once per week. The surgery to remove the ovaries was performed according to the following method.
Under pentobarbital anesthesia (65 mg/kg, i.p.), a 5 mm incision was made in the dorsal abdomen of a mouse, and the ovaries was temporarily exposed to the outside of the body. After ligation between the ovaries and uterus end (i.e. oviducts), the ovaries were dissected. Thereafter, the oviducts were promptly returned to the intraperitoneal cavity, and the abdominal wall and the skin were sutured.
A 0.25 mg amount of the D4-II-3E-4 fraction (a freeze-dried product) prepared in Preparation Example 1 was dissolved in 50 ml of ion exchange water to prepare a suspension. […]
Water at a temperature of 25° C. was introduced into a clear measuring cylinder made of polycarbonate (inner diameter: 10 cm; height: 25 cm) so that the water surface level was adjusted to 10 cm from the bottom. Each mouse was forced to swim for 6 minutes while being recorded by a high-sensitivity video system. Thereafter, the recorded image was observed, and by means of an event recorder, the time (in seconds) during which the mouse was floating in an immobile state was measured (an analysis was made for the duration of the 4 minutes from the second minute onward).

[3] = tested on: ovariectomy model mice; assay: Uterus weight measurement after forced swimming test (Test Example 1); settings: dose that shortens the immobility time, wet weight, FIG. 9
Experimental: After conducting the forced swimming test (after completing the observation of the immobility time), an overdose of pentobarbital (100 mg/kg or more) was administered to each of the mice to cause them to stop breathing, and the mice were sacrificed. Then, the uterus was collected from each of the mice through an incision in the abdomen. The collected uterus was spread onto a filter paper, and after the serosa and blood vessel adhering to the uterus were removed, the weight of the uterus was promptly measured on a wet basis with an analytical balance.

Which “Immobility Time (second) Mean” value [1] does the source give for `O=C(O)/C=C\CCCCC[C@@H](O)CO` [DDA-7, (2Z,9R)-9,10-dihydroxy-2-decenoic acid] here?
The value was 80.14 s.

And the antidepressant effect [1]?
The antidepressant effect was “exhibit an antidepressant effect”.

`O=C(O)C=CCCCCCCCO` [10-hydroxydecenoic acid, reference compound] was tested. Which antidepressant effect ([2]; oral 70, 140, 210 mg/kg/day, FIG. 10) did it give?
Its antidepressant effect is “does not exhibit an antidepressant effect”.

For `CC(=O)OCCCC/C=C/C(=O)O` [DDA-16, (2E)-7-acetoxy-2-heptenoic acid], which “Immobility Time (second) Mean” value [1] is on record?
The value was 87.14 s.

What about the antidepressant effect [1] of the same compound?
The antidepressant effect was “exhibit an antidepressant effect”.

Which “immobility time compared with control group” value ([2]; 0.25 mg in 50 ml water, 0.1 ml per 10 g body weight orally once a day for 2 weeks, 4 minutes from the second minute onward, FIG. 8) does the source give for `O=C(O)/C=C/CCCCCC(O)CO` (stereo not shown) [D4-II-3E-4 fraction, (2E)-9,10-dihydroxy-2-decenoic acid] here?
Its value is “significantly shorter”.

What about the antidepressant effect ([2]; oral, once a day for 2 weeks, conclusion from FIG. 8) of the same compound?
The antidepressant effect was “exhibits an antidepressant effect”.

What about the “uterus weight compared with control group” value [3] of the same compound?
Its value is “a difference in the uterus weights was not recognized”.

Which “Immobility Time (second) Mean” value [1] does the source give for `CC(O)CCCCC/C=C/C(=O)O` (racemic) [DDA14 + DDA15, (2E,9S+9R)-9-hydroxy-2-decenoic acid] here?
The value was 98.82 s.

And the antidepressant effect [1]?
The antidepressant effect was “exhibit an antidepressant effect”.
